Source: US20260216157A1, “TETRAHYDROTHIOPHENE DERIVATIVE AND USE THEREOF IN MEDICINE” (Haisco Pharmaceutical Group Co., Ltd., priority 2023, published 2026)

Legend:
[1] = Pharmacokinetic test in mice; format: in vivo; settings: C57, mouse, PO 30 mg/kg, plasma
Description: Biological Test Example 3: Pharmacokinetic Test in Mice
Experimental animals: C57 mice, 22-25 g, 6 mice/compound.
Experimental design: on the day of the experiment, C57 mice were randomly grouped according to their body weights. The animals were fasted with water available for 12-14 h one day before the administration, and were fed 4 h after the administration.
Before and after the administration, 0.06 mL of blood was taken from the orbit under isoflurane anesthesia, and placed in an EDTAK2 centrifuge tube. Centrifugation was performed at 5000 rpm at 4° C. for 10 min, and the plasma was collected. The blood collection time points for both the intravenous administration group and the intragastric administration group were: 0, 5 min, 15 min, 30 min, 1 h, 2 h, 4 h, 7 h, 24 h and 48 h. Before analysis and detection, all samples were stored at −80° C. The samples were quantitatively analyzed by LC-MS/MS.

hNav1.8 = target: T1, hNav1.8 (Homo sapiens, UniProt Q9Y5Y9); test: Nav1.8 manual patch clamp test; format: cell-based; settings: CHO cells stably expressing human Nav1.8; whole-cell patch clamp, half-inactivated state; read-out: Inhibitory activity (IC50) against hNav1.8
T1 construct: expressed in transfected cells; host or cells: CHO
T1 sequence (Q9Y5Y9 whole entry): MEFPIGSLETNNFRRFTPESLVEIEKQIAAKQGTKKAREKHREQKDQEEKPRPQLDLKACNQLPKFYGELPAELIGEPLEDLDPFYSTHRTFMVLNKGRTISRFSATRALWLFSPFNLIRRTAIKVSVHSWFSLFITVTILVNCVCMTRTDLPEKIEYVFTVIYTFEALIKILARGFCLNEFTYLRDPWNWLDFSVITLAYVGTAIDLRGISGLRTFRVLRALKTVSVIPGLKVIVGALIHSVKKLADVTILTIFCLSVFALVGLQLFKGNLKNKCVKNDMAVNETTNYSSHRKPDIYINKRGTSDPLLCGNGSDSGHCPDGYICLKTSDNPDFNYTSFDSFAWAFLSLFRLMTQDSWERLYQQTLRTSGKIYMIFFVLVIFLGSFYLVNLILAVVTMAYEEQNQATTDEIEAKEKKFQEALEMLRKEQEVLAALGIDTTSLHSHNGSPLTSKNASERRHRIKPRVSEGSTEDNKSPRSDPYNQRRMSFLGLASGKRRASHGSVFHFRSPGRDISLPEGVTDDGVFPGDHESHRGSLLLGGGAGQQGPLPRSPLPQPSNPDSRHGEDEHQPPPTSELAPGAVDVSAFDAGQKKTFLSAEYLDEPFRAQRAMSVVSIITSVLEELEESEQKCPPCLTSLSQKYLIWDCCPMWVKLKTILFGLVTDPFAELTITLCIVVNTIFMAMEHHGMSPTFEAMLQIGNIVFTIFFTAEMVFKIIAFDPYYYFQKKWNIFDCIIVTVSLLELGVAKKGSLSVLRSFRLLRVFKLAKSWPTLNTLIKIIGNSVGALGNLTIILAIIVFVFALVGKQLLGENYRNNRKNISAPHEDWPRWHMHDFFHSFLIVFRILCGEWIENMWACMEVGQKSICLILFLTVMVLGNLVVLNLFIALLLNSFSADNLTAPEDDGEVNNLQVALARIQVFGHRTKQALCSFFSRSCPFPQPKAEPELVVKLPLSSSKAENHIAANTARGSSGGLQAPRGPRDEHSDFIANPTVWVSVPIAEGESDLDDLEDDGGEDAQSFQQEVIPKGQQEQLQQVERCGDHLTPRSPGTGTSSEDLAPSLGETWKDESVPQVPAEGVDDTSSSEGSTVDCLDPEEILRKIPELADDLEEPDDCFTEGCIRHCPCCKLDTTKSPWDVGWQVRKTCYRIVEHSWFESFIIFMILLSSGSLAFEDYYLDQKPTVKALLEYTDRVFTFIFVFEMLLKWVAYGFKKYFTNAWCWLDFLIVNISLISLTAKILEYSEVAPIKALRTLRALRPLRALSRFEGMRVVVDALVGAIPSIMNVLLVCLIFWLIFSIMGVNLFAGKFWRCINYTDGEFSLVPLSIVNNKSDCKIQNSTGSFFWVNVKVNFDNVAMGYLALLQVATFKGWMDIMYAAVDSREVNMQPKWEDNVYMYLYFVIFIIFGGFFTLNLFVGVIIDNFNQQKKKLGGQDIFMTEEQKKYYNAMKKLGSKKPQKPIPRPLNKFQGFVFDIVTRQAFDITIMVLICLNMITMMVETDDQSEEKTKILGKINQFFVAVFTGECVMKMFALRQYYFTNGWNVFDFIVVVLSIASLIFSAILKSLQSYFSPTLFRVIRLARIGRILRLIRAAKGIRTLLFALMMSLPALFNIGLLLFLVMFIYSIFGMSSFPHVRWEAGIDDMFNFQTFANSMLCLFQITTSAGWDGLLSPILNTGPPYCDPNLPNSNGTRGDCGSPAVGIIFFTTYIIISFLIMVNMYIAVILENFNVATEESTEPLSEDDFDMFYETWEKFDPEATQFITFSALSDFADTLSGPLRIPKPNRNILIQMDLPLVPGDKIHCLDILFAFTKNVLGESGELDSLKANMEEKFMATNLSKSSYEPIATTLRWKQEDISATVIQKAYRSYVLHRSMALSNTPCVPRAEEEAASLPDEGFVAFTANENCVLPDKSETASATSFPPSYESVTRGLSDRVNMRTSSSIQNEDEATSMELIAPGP
Description: Nav1.8 Manual Patch Clamp Test
CHO cell lines stably expressing human Nav1.8 were cultured in a Ham's F-12 medium containing 10% fetal bovine serum, 10 μg/mL Blasticidin, 200 μg/mL Hygromycin B and 100 μg/mL Zeocin. The cells were cultured at 37° C. with a carbon dioxide concentration of 5%. The old medium was removed, and the cells were rinsed once with PBS. Then, 1 mL of 0.25%-Trypsin-EDTA solution was added, and the cells were incubated at 37° C. for approximately 1.5 min. Once the cells detached from the bottom of the dish, complete medium pre-warmed to 37° C. was added. The cell suspension was gently triturated with a pipette to dissociate the clumped cells. The cell suspension was transferred to a sterile centrifuge tube and centrifuged at 1000 rpm for 5 min to collect the cells. The cells were seeded into 6 cm cell culture dishes at a density of 2.5×10^5 cells per cell culture dish (final volume: 5 mL) for expansion or maintenance culture. To maintain the electrophysiological activity of the cells, the cell density should not exceed 80%. Before patch clamp testing, the cells were dissociated with 0.25%-Trypsin-EDTA. 6.5×10^3 cells were plated onto coverslips and cultured in 24-well plates (final volume: […]) for 18 hours before detection.
The compound was dissolved in dimethyl sulfoxide (DMSO) and prepared into a 30 mM DMSO stock solution. The stock solution was diluted with the extracellular fluid (140 mM NaCl, 3.5 mM KCl, 1 mM MgCl2·6H2O, 2 mM CaCl2·2H2O, 10 mM D-Glucose, 10 mM HEPES and 1.25 mM NaH2PO4·2H2O; adjusted to pH 7.4 with NaOH) to the test concentration, and the final DMSO concentration of all test samples was 0.1%.
(3) Electrophysiological Test
First, the recording electrodes were pulled from capillary glass tubes by using a microelectrode puller. Then, the electrodes were filled with the intracellular fluid (50 mM CsCl, 10 mM NaCl, 10 mM HEPES, 60 mM CsF and 20 mM EGTA; adjusted to pH 7.2 with CsOH) and mounted onto the microelectrode holder. Under an inverted microscope, the microelectrode manipulator was used to immerse the electrodes into the extracellular fluid, and the pipette resistance (Rpip) was recorded. The electrodes were slowly brought into contact with the cell surface, and negative pressure suction was applied to form a […]. At this point, fast capacitance compensation was performed, and negative pressure was continuously applied to break the cell membrane, forming a whole-cell recording mode. Finally, slow capacitance compensation was performed, and experimental parameters such as series resistance (Rs) were recorded. No electric leakage compensation was applied. When the Nav1.8 current in whole-cell recording was stable, drug administration was initiated, with each drug concentration for approximately 5 min (or until the current was stable). The coverslips spread with the cells were placed in a recording chamber under the inverted microscope. The blank control extracellular fluid and the test compound working solution were perfused through the recording chamber via the gravity-driven perfusion method, thereby acting on the cells, and a peristaltic pump was used to facilitate liquid exchange. The current recorded from cells in compound-free extracellular fluid was used as the control group. All electrophysiological experiments were conducted at room temperature. The inhibition rate of compounds on Nav1.8 was determined by calculating the relative percentage of peak currents generated before and after the cells were treated with the compounds.
The voltage stimulation protocol for whole-cell patch clamp recording of Nav1.8 sodium currents was described as follows. When the whole-cell sealing was formed, the cells were clamped at a voltage of −120 mV. First, the voltage was stepped from −110 mV to −30 mV in 10 mV increments and maintained for 5 s, followed by a depolarizing pulse to 0 mV to obtain a half-inactivation voltage (Vhalf). […]

[2] = test system: Spinal nerve ligation (SNL)-induced mouse model of neuropathic pain; test: Spinal nerve ligation (SNL)-induced mouse model of neuropathic pain; format: in vivo, C57BL/6J mice; settings: SNL mice, mechanical pain threshold
Description: Biological Test Example 8: Spinal Nerve Ligation (SNL)-Induced Mouse Model of Neuropathic Pain
Male C57BL/6J mice purchased from Zhejiang Vital River Laboratory Animal Technology Co., Ltd. were adaptively raised for one week and then the models were established. […]
The mice that were unsuccessful in modeling were eliminated the next day after modeling (marker for successful modeling: mice with their hind paws curled up). […] After grouping, the test compounds (3 and 30 mg/kg) or vehicles (0.5% methylcellulose) were administered intragastrically, and the mechanical pain threshold (MPT) of the mice was measured at different time points after the administration. […]

CYP2C19 = target: T2, CYP2C19 (Homo sapiens, UniProt P33261); test: CYP450 enzyme inhibition test (human liver microsomes); format: in vitro ADME; settings: read-out: IC50 against CYP2C19
T2 construct: co-incubated with human liver microsomes and test compounds; from tissue; host or cells: human liver microsomes
T2 sequence (P33261 whole entry): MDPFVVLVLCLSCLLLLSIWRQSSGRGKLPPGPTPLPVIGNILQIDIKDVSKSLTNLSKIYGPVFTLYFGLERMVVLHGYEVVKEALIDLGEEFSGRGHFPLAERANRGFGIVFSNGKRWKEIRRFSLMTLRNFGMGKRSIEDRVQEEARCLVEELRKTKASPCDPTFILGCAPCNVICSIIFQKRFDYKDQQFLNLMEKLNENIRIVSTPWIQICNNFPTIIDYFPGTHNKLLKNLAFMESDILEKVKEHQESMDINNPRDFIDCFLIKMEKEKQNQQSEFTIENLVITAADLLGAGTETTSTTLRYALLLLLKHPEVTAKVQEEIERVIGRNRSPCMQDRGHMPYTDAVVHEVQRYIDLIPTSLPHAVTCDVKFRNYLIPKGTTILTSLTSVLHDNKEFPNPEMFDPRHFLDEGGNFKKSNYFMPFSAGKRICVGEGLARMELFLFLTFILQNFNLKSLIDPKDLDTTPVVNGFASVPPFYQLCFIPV
Description: (§1) Biological Test Example 6: CYP450 Enzyme Inhibition Test The purpose of this study was to evaluate the effect of test compounds on the activity of five isoenzymes (CYP1A2, CYP2C9, CYP2C19, CYP2D6, and CYP3A4) of human liver microsomal cytochrome P450 (CYP) by using an in vitro testing system. The specific probe substrates of CYP450 isoenzymes were co-incubated with human liver microsomes and test compounds at different concentrations, and the reaction was initiated by adding reduced nicotinamide adenine dinucleotide phosphate (NADPH). After the completion of the reaction, the samples were treated and subjected to the liquid chromatography-tandem mass spectrometry (LC-MS/MS) to quantitatively detect metabolites produced by the specific substrates. The changes in CYP enzyme activity were determined, and IC50 values were calculated to evaluate the inhibitory potential of the test compounds on each CYP enzyme subtype.

CYP3A4 = target: T3, CYP3A4 (Homo sapiens, UniProt P08684); test: as above; format: in vitro ADME; settings: read-out: IC50 against CYP3A4
T3 construct: co-incubated with human liver microsomes and test compounds; from tissue; host or cells: human liver microsomes
T3 sequence (P08684 whole entry): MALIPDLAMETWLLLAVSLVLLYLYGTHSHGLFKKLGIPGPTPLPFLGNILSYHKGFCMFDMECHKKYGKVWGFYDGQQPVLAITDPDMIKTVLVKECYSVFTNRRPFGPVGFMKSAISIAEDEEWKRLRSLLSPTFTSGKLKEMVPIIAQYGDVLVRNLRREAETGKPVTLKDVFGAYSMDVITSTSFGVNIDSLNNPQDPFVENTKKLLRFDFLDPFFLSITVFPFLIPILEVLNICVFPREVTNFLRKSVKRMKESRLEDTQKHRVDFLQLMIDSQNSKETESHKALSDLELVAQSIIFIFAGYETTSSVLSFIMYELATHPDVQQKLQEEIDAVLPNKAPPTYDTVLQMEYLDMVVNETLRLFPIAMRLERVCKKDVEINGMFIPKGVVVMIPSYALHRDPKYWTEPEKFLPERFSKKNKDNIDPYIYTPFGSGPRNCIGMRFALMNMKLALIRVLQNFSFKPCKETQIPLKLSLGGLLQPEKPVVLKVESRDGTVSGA
Description: as §1

CYP2D6 = target: T4, CYP2D6 (Homo sapiens, UniProt P10635); test: as above; format: in vitro ADME; settings: read-out: IC50 against CYP2D6
T4 construct: co-incubated with human liver microsomes and test compounds; from tissue; host or cells: human liver microsomes
T4 sequence (P10635 whole entry): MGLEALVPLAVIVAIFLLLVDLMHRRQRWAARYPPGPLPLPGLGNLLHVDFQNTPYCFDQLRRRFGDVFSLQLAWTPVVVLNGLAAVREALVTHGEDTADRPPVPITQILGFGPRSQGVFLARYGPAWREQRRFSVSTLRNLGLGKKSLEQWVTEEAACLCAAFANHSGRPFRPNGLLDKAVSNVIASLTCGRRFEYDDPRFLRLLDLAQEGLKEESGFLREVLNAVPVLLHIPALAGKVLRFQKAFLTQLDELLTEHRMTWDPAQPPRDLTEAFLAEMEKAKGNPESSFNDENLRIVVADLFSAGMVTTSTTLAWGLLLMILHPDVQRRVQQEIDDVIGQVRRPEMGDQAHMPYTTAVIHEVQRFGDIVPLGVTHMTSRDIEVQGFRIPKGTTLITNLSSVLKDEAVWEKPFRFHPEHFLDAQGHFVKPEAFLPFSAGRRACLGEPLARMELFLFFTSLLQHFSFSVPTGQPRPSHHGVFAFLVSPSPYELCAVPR
Description: as §1

CYP2C9 = target: T5, CYP2C9 (Homo sapiens, UniProt P11712); test: as above; format: in vitro ADME; settings: read-out: IC50 against CYP2C9
T5 construct: co-incubated with human liver microsomes and test compounds; from tissue; host or cells: human liver microsomes
T5 sequence (P11712 whole entry): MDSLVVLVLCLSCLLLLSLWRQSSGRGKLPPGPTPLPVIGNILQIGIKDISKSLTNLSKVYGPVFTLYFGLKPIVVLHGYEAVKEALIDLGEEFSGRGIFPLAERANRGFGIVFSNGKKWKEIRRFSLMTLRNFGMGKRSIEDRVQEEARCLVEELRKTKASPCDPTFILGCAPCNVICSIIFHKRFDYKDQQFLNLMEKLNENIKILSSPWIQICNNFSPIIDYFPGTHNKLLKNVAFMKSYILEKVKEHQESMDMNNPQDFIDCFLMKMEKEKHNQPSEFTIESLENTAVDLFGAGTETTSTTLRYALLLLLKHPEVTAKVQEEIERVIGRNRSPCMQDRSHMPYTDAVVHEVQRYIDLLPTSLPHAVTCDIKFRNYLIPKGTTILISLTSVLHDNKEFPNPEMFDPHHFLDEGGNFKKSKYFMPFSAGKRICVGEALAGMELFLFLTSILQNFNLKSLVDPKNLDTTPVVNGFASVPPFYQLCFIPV
Description: as §1

CYP1A2 = target: T6, CYP1A2 (Homo sapiens, UniProt P05177); test: as above; format: in vitro ADME; settings: read-out: IC50 against CYP1A2
T6 construct: co-incubated with human liver microsomes and test compounds; from tissue; host or cells: human liver microsomes
T6 sequence (P05177 1-516): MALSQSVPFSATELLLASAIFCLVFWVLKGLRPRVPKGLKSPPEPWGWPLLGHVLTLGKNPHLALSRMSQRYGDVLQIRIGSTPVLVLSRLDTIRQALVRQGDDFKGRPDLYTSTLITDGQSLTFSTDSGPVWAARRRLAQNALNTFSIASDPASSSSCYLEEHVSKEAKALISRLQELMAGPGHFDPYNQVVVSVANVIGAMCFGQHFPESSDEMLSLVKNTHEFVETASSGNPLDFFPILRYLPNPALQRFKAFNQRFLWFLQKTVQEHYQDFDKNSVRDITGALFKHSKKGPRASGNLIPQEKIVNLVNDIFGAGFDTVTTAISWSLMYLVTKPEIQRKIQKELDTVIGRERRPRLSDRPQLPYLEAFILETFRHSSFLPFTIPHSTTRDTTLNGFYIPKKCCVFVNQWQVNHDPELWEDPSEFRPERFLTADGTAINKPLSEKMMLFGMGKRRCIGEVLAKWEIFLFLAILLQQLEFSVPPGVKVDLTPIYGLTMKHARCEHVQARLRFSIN
Description: as §1

Row | SMILES | AUC(0-t) [1] | IC50 (hNav1.8) | analgesic efficacy (area under the time-MPT curve) ([2]; 3 mg/kg intragastric) | analgesic efficacy (area under the time-MPT curve) ([2]; 30 mg/kg intragastric) | IC50 (CYP2C19) | IC50 (CYP3A4) | IC50 (CYP2D6) | IC50 (CYP2C9) | IC50 (CYP1A2)
1 | COc1c(C2CC(C)(C(F)(F)F)SC2C(=O)Nc2ccnc(C(N)=O)c2)ccc(F)c1F (single isomer, unassigned) [Compound 31-1P1] | 61600 ± 9480 ng·h/mL | < 0.0001 µM | – | – | – | – | – | – | –
2 | COc1c([C@H]2[C@H](C(=O)Nc3ccc(F)c(C(N)=O)c3)S[C@@](C)(C(F)(F)F)[C@H]2C)ccc(F)c1F [Compound 6-2a] | – | < 0.0001 µM | significant analgesic efficacy | significant analgesic efficacy | – | – | – | – | –
3 | COc1c([C@H]2[C@H](C(=O)Nc3ccnc(P(C)(C)=O)c3)S[C@@](C)(C(F)(F)F)[C@H]2C)ccc(F)c1F [Compound 58] | 65100 ± 9200 ng·h/mL | – | – | – | > 30 µM | > 30 µM | > 30 µM | > 30 µM | > 30 µM
